From patent publication US20230290452A1, “Electronic Health Record (EHR)-Based Classifier for Acute Respiratory Distress Syndrome (ARDS) Subtyping” (Endpoint Health Inc., priority 2020, published 2023) come the findings set out here.

Holding throughout (format): in vivo, human
The subject of one assay is COVID-19 patients. The assay can be described thus: CoDEX study dataset, dexamethasone vs placebo by Model C.4 subphenotype. The text has this:
The dataset from the CoDEX study was used for analysis. The CoDEX study involved treating COVID-19 patients with dexamethasone. K-means clustering was applied using Model C.4 described above in Table 70 and patients were separated into two clusters assigned to Subphenotype A and Subphenotype B. Tables 75A and 75B show the corresponding results.

In assay [1] the test system is ARDS patients. As to the kind of experiment: ARMA-KARMA-LARMA study dataset, lisofylline and ketoconazole vs placebo by subphenotype. The note with it: for Mortality: ARMA-KARMA-LARMA; for Dead 90: 1 0, Percent: mortality. The text has this: The dataset from the ARMA-KARMA-LARMA study was used for analysis. Interventions in the study included lisofylline and ketoconazole.

The subject of assay [2] is ARDS patients. As to the kind of experiment: LASRS study dataset, methylprednisolone vs placebo by Model C.4 subphenotype. To be noted: for Dead 90: 1 0, Frequency: dead at 90 days; for Mortality: cohort receiving methylprednisolone. The text has this:
The dataset from the LASRS study was used for analysis. The LASRS study involved administration of corticosteroids, specifically methylprednisolone. K-means clustering was applied using Model C.4 described above in Table 70 and patients were separated into two subphenotypes based on the K-means cluster. Overall mortality was 40% in Subphenotype B and 28.57% in Subphenotype A (p = 0.3287). Within Subphenotype B, mortality rates were 40% regardless of whether the patient received methylprednisolone or a placebo; however, in Subphenotype A, mortality was 50% in the cohort receiving methylprednisolone, compared with 9.09% in the placebo cohort (p = 0.0382).

[3] abbreviates: Patients administered lisofylline (title), Subphenotype A.
The mark [4] stands for this setting: Patients administered lisofylline (title), Subphenotype B.
Setting [5] is: active arm vs placebo, Subphenotype A patients.
[6] abbreviates: active arm vs placebo, Subphenotype B patients.
Setting [7] is: Subphenotype A patients, not dead at 90 days.
[8] abbreviates: Subphenotype B patients, not dead at 90 days.

Regarding `C[C@@H]1C[C@H]2[C@@H]3CCC4=CC(=O)C=C[C@]4(C)[C@@]3(F)[C@@H](O)C[C@]2(C)[C@@]1(O)C(=O)CO` [dexamethasone], in the assay with COVID-19 patients (Subphenotype A), the “28-day Mortality” value was 54.72%, the “Increase in number of vent free days versus placebo” value came out at 45% and the “Vent Free Days” value is listed as 8.81 days. Further, in the assay with COVID-19 patients (Subphenotype B), the “28-day Mortality” value is given as 62.50%, the “Increase in number of ventilator free days versus placebo” value stood at 101% and the “Vent Free Days” value came to 5.09 days.

With `C[C@@H](O)CCCCn1c(=O)c2c(ncn2C)n(C)c1=O` [lisofylline], the Mortality in the assay with ARDS patients [1] (Subphenotype A, patients who received lisofylline) came out at 31.4%. Also, in the assay on ARDS patients [1] (Subphenotype B, patients who got lisofylline), the Mortality worked out at 40%. Moreover, in the assay on ARDS patients [1] (setting [3]), the “Dead 90: 0 0, Frequency” value stood at 36; the “Dead 90: 0 0, Percent” value was 72%; the “Dead 90: 1 0, Frequency” value was determined as 14; the “Dead 90: 1 0, Percent” value worked out at 28%. In addition, in the assay on ARDS patients [1] (setting [4]), the “Dead 90: 0 0, Frequency” value is listed as 51; the “Dead 90: 0 0, Percent” value is given as 72.86%; the “Dead 90: 1 0, Frequency” value worked out at 19; the “Dead 90: 1 0, Percent” value was 27.14%.

Consider `C[C@H]1C[C@@H]2[C@H]([C@@H](O)C[C@@]3(C)[C@H]2CC[C@]3(O)C(=O)CO)[C@@]2(C)C=CC(=O)C=C12` [methylprednisolone], for which the “Dead 90: 0 0, Frequency” value is reported as 24 in the assay on ARDS patients [1] (setting [5]), 15 in the assay with ARDS patients [1] (setting [6]), 5 in the assay with ARDS patients [2] (setting [7]) and 27 in the assay with ARDS patients [2] (setting [8]). The figures for the “Dead 90: 0 0, Percent” value in the assay with ARDS patients [1] (setting [5]), in the assay on ARDS patients [1] (setting [6]) and in the assay on ARDS patients [2] (setting [8]) were 68.57%, 60% and 60%, respectively. Also, the “Dead 90: 1 0, Frequency” value with ARDS patients [1] (setting [5]) was found to be 11; with ARDS patients [1] (setting [6]) it was 10; with ARDS patients [2] (Subphenotype A patients), 5; in the assay with ARDS patients [2] (Subphenotype B patients) it was 18. Moreover, the “Dead 90: 1 0, Percent” value turned out to be 31.43% with ARDS patients [1] (setting [5]); 40% in the assay with ARDS patients [1] (setting [6]); 40% with ARDS patients [2] (Subphenotype B patients, mortality). The “Dead 90: 1 0, Row Percent” value in the assay with ARDS patients [2] (Subphenotype A patients, mortality) stood at 50%. Also, the “Dead 90: 0 0, Row Percent” value in the assay with ARDS patients [2] (setting [7]) came out at 50%. Also, the Mortality in the assay on ARDS patients [2] (Subphenotype A) amounted to 50%; with ARDS patients [2] (Subphenotype B) it was 40%.
